Test results reported in publication PMC7287670, “Tyrosinase Inhibition and Kinetic Details of Puerol A Having But-2-Enolide Structure from Amorpha fruticosa” (Molecules, 2020).
Like-named read-outs stand apart in the source and are kept apart here. One block for each compound: values may come before it.

Key:
[1] = system: B16F10 mouse melanoma cells; assay: Melanin content in α-MSH-stimulated B16F10 melanoma cells; type: cell-based; conditions: B16 cells, 48 h in the presence of α-MSH, read-out: Melanin Synthesis IC50
Method: (§1) The B16F10 mouse melanoma cell (American Type of Culture Collection, VA, USA) were cultured as previously reported. Briefly, the cells were incubated in DMEM containing 10% fetal bovine serum and 1% penicillin/streptomycin (Sigma–Aldrich, St. Louis, MO, USA) at 37 °C in a 5% CO2 humidified incubator.
For the analysis of melanin content accumulated in the cytosol, B16F10 mouse melanoma cells were seeded on to six-well plates at a density of 1 × 10^5 cells per well, and cultured for 24 h. Then, the cells were treated with 1 μM of α-MSH (Sigma–Aldrich, St. Louis, MO, USA) in the presence or absence of different concentrations of compound 1. Thereafter, the cells were collected using trypsin-EDTA (Lonza, Walkersville, MD, USA) and dissolved in 1 N NaOH, including 10% DMSO at 65 °C for 24 h. The melanin content was determined at 415 nm by a Bio-Rad microplate reader.

[2] = system: B16F10 mouse melanoma cells; assay: L-DOPA oxidation (cellular tyrosinase) in α-MSH-treated B16F10 melanoma cells; type: cell-based; conditions: B16 cells, 48 h in the presence of α-MSH
Method: as §1
B16F10 mouse melanoma cells were seeded on to 6-well plates at a density of 1 × 10^5 cells per well and cultured for 24 h. Then, the cells were treated with α-MSH (1 μM) in the presence or absence of different concentrations of compound 1, followed by incubation for 48 h. The incubated cells were collected and dissolved with 1% Triton X-100 solution for 1 h on ice. Then, the cells were cultured for 4 h with 100 μL (2 mg/mL) L-DOPA in a 5% CO2 humidifying incubator at 37 °C condition. After that, by using a microplate reader (Bio-Rad), absorbance at 490 nm was measured.

[3] = system: B16F10 mouse melanoma cells; assay: Cell viability assay (MTT) in B16F10 melanoma cells; type: cell-based; conditions: B16 cells, 48 h
Method: as §1
The cell viability assay of the B16F10 mouse melanoma cells were conducted with subtle variation in previous methods. The cells were incubated in 96-well plates overnight. […] After incubation, 5 μg/mL of MTT solution was added to the each well and the cells were incubated for 3 h. After the medium was removed, the cells were treated with dimethyl sulfoxide (DMSO) and cultured at room temperature for 20 min. The absorbance at 595 nm was measured on a Bio-Rad microplate reader (Hercules, CA, USA).

[4] = target: T1, Mushroom tyrosinase (monophenolase) (Agaricus bisporus, UniProt C7FF04); assay: Mushroom tyrosinase monophenolase inhibition (L-tyrosine as substrate, 475 nm); type: biochemical; conditions: for IC50: substrate L-tyrosine; for L-Tyrosine Inhibition Mode: Lineweaver–Burk plot
T1 construct: purchased Sigma-Aldrich Co., St. Louis, MO, USA
T1 sequence (C7FF04 1-392): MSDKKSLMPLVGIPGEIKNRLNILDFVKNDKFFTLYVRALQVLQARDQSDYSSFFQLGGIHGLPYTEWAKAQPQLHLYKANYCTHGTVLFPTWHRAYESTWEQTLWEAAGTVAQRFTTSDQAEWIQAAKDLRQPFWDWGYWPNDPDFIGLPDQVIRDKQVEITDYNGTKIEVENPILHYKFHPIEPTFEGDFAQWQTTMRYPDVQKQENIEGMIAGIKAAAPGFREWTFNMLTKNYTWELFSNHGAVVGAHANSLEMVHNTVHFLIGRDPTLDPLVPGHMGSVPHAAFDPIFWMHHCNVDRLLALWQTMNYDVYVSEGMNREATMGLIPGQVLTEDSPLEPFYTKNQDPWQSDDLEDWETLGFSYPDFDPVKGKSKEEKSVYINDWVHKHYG
Method: (§2) Mushroom tyrosinase (EC 1. 14. 18. 1) (Sigma-Aldrich Co., St. Louis, MO, USA) activity was performed in accordance with the previously described method with subtle modification, using L-tyrosine and L-3,4-dihydroxylphenylalanine (L-DOPA) for monophenolase and diphenolase as substrates, respectively. Two hundred sixty units/mL of the tyrosinase stock solution was prepared at optimum pH 6.8 (0.05 M phosphate buffer). The inhibitors were initially dissolved in DMSO and diluted to several concentrations. […] Then, 10 μL of the enzyme was added to the mixture. Subsequent absorbance of DOPA chrome formation was recorded at 475 nm by means of an UV-Vis spectrophotometer (SpectraMax M3, Molecular Devices, San Jose, CA, USA) in a 96-well microplate at 30 °C. Three separate determinations were conducted for each assay.
(§3) The characteristic of tyrosinase inhibition was represented by Lineweaver−Burk double-reciprocal-plot and Dixon plot at specified concentrations of the substrates and inhibitors, respectively.

[5] = target: T2, Mushroom tyrosinase (diphenolase) (Agaricus bisporus, UniProt C7FF04); assay: Mushroom tyrosinase diphenolase inhibition (L-DOPA as substrate, 475 nm); type: biochemical; conditions: for IC50: substrate L-DOPA
T2 construct: purchased Sigma-Aldrich Co., St. Louis, MO, USA
T2 sequence (C7FF04 1-392): as above
Method: as §2, §3

[6] = target: T3, tyrosinase (monophenolase) (Agaricus bisporus, UniProt C7FF04); assay: Time-dependent assays and progress curves (slow-binding kinetics, lag phase); type: biochemical, mushroom; conditions: for Type of inhibitor (time-dependent inhibition): L-tyrosine, preincubation and progress curves
T3 construct: purchased Sigma-Aldrich Co., St. Louis, MO, USA
T3 sequence (C7FF04 1-392): as above
Method: The assays were carried out using tyrosinase (260 units) and L-tyrosine as a substrate of monophenolase in 0.25 M phosphate buffer (pH 6.8) at 30 °C. The enzyme activity was recorded sequentially for 30 min by a UV spectrophotometer. To evaluate the time-dependent inhibition and the kinetic parameters of tyrosinase, progress curves with 30 s intervals were measured at different concentrations of the inhibitor and substrate. The data were through the use of Sigma Plot (SPCC Inc., Chicago, IL, USA) as a nonlinear regression program to provide the respective parameters for each curve; A (absorbance at 475 nm), vi (initial rate), vss (steady-state rate), kobs (apparent first-order rate constant for the transition from vi to vss), and Kiapp (apparent Ki) in accordance with the following Equations (2)–(5). (2) A=vsst+vi − vss1 −exp−kobst/kobs (3) v/v0=exp (−kobst) (4) kobs=k4 (1+[I]/Kiapp) (5) Kiapp=k4/k3
The value of −kobs was estimated by a slope of the straight line from the plot of the natural log of the residual enzyme activity vs. the preincubation time. The plot of kobs vs. the concentration of inhibitors gave the values of k3, k4, and Kiapp on the basis of Morrison and Walsh’s method.

tyrosinase [7] = target: T4, tyrosinase (Agaricus bisporus, UniProt C7FF04); assay: HPLC analysis of tyrosinase inhibition with N-acetyl-L-tyrosine as substrate; type: biochemical; conditions: HPLC at 275 nm
T4 construct: purchased Sigma-Aldrich Co., St. Louis, MO, USA
T4 sequence (C7FF04 1-392): as above
Method: The HPLC analysis of tyrosinase inhibition was carried out by giving minor alterations in the previous procedure with N-acetyl-L-tyrosine as a substrate. The 4.5 mM of the substrate was prepared in the 50 mM phosphate buffer (pH 6.8). Then, 670 units/mL tyrosinase (Sigma-Aldrich Co., St. Louis, MO, USA) solution and several concentrations of the inhibitor solution were arranged. The N-acetyl-L-tyrosine was observed on 275 nm with 4.6 min of tR by eluting the mobile phase consisting of A (H2O) and B (acetonitrile, ACN), with the following isocratic condition: 0–8 min and A/B = 90:10 (v/v). After 20 μL of the sample solution was subjected to the HPLC (Pack ODS-AQ C18 column, YMC) system, the reactions were measured every 15 min. All procedures were carried out at room temperature.

tyrosinase [8] = target: T4, tyrosinase; assay: Fluorescence quenching measurement of binding affinity to tyrosinase
Method: To measure fluorescence from the tyrosinase enzyme, 10 μL of 260 unit/mL enzyme solution with 165 μL of phosphate buffer (0.05 M) were added into 96-well black immunoplates. Afterward, 5 μL of various concentrations (2.5–20 μM) of inhibitor was added into each well. All fluorescence spectra were obtained by a SpectraMax M3 spectrophotometer (Molecular Devices, San Jose, CA, USA). The spectra were measured from 300 to 400 nm with emission slits regulated to 2.0 nm, and the excitation wavelength was 265 nm. The Stern–Volmer quenching constant (KSV) was estimated using Equation (6). All experiments were carried out in triplicate, and the mean values were calculated. (6) […] where F0 and F are the fluorescence intensities in the absence and presence of quencher (Q). KSV is the Stern–Volmer quenching constant [L M^−1]. For static quenching, the correlation between the fluorescence intensity and the concentration of the quencher for the series of reactions can be expressed by Equation (7). (7) log[(F0 − F)/F]=logKA+nlog[Q]f
F0 and F are the fluorescence intensities in the absence and presence of inhibitor; KA is the binding constant; n is the number of binding sites of the enzyme; Qf is the concentration of inhibitor [24].

[9] = pH 6.8, 30 °C, read-out: L-Tyrosine IC50 Value (monophenolase)
[10] = pH 6.8, 30 °C, read-out: L-DOPA IC50 Value (diphenolase)
[11] = slow-binding, L-tyrosine as substrate

Structure (SMILES): O=c1cc(CO)occ1O [Kojic acid, reference compound]
- IC50 [1]: > 500 µM
- IC50 [2]: > 500 µM
- Cytotoxicity LD50 [3]: >500 µM

- IC50 [4, 9]: > 200 µM
- IC50 ([4]; read-out: IC50 monophenolase): 1500 µM
- IC50 [5, 10]: > 200 µM
- IC50 ([5]; read-out: IC50 diphenolase): 1900 µM
Structure (SMILES): O=C1C=C(c2ccc(O)cc2O[C@@H]2O[C@H](CO)[C@@H](O)[C@H](O)[C@H]2O)C(Cc2ccc(O)cc2)O1 (stereo partly shown) [Compound 2, Kuzubutenolide A]

Structure (SMILES): O=C1C=C(c2ccc(O)cc2O)C(Cc2ccc(O)cc2)O1 (stereo not shown) [Compound 1, Puerol A]
- Reversibility of inhibition ([4]; initial velocity vs tyrosinase and inhibitor concentrations): reversible inhibitor
- Ki ([4]; monophenolase, Dixon plot): 0.87 µM
- L-Tyrosine Inhibition Mode ([4]; monophenolase): Competitive
- L-Tyrosine Inhibition Mode ([4]; monophenolase, listed as puerol A): competitively
- IC50 [4, 9]: 2.2 ± 0.2 µM
- Ki ([5]; diphenolase, Dixon plot): 1.95 µM
- L-DOPA Inhibition Mode ([5]; diphenolase, Lineweaver–Burk plot): competitive inhibition mode
- IC50 [5, 10]: 3.88 ± 0.3 µM
- Ki ([6]; Kiapp = k4/k3): 0.107 µM
- Type of inhibitor (time-dependent inhibition) [6]: simple, reversible, slow-binding inhibitor
- Type of inhibitor (time-dependent inhibition) ([6]; listed as Puerol A): reversible, competitive, simple slow-binding inhibitor
- Type of inhibitor (time-dependent inhibition) ([6]; listed as puerol A): competitive inhibitor and reversible, simple slow-binding inhibitor
- lag phase of L-tyrosine oxidation ([6]; inhibitor 0.5–8.0 μM, 60 s without inhibitor): up to 600 s
- k3 [6, 11]: 465 M⁻¹ s⁻¹
- k4 [6, 11]: 0.003 min⁻¹
- oxidation of N-acetyl-L-tyrosine blocked (tyrosinase [7]; 5 μM): 56%
- oxidation of N-acetyl-L-tyrosine blocked (tyrosinase [7]; 10 μM): 86%
- oxidation of N-acetyl-L-tyrosine blocked (tyrosinase [7]; 20 μM, listed as Puerol A): completely inhibited
- oxidation of N-acetyl-L-tyrosine blocked (tyrosinase [7]; 20 μM, listed as puerol A): 95%
- n (number of binding sites) (tyrosinase [8]; from log[(F0 − F)/F] plot): one
- KSV (Stern–Volmer quenching constant) (tyrosinase [8]; inhibitor 2.5–20 μM, excitation 265 nm, emission 300–400 nm): 145000 L/mol
- IC50 [1]: 11.4 ± 1.2 µM
- IC50 [2]: 23.9 ± 1.4 µM
- Cytotoxicity LD50 [3]: 137.8 ± 1.2 µM
